Tested on: CRP
Experiment: Leptin's effect on CRP secretion and expression in human hepatocytes (Western, real-time RT-PCR)
Type: cell-based
Description: Human hepatocytes were isolated from donor livers. Briefly, the livers were perfused in a three-step process. A calcium-free buffer supplemented with EGTA is used to break […] junctions, which is followed by the same perfusion buffer without EGTA. Finally, a calcium-containing buffer supplemented with digestive enzymes (collagenase and DNase) was used. Following digestion, parenchymal hepatocytes were isolated by three steps of low-speed centrifugation. Cells with a viability of at least 85% were plated and cultured in hepatocytes maintenance medium (HMM) (Cambrex BioScience, Walkersville, Md.) supplemented with 10% fetal bovine serum (FBS), 0.1 μM dexamethasone, 0.1 μM insulin, and 50 μg/ml gentamicin on collagen-coated tissue culture dishes for 2-4 hours. The cells were subsequently cultured in the above medium without FBS.
Approximately 24 hours after seeded, the hepatocytes were washed with serum-free HMM supplemented with 0.1 μM dexamethasone and 0.1 μM insulin, and then cultured in the same medium for another 48 hours. Subsequently, the cells were switched to serum-free HMM supplemented with 0.1 μM dexamethasone before stimulated with leptin (NHPP) or rhIL-6 (R&D Systems, Minneapolis, Minn.) for 24 hours or 48 hours. For experiments involving PI3-kinase inhibitors, hepatocytes were pretreated with LY294002 (EMD Biosciences, Calif.) for 1 hour before hormonal stimulation.
Hepatocytes were isolated and treated as described in Example 4. Culture medium was centrifuged to remove detached cells and then heated at 95° C. for 5 minutes in SDS-sample buffer (Boston Bioproducts, Mass.). After separation on 10% SDS polyacrylamide gels, proteins were electro-transferred overnight to nitrocellulose membranes. Pre-blocked using 5% non-fat milk in PBS with 0.5% Tween 20, the membranes were incubated with appropriate primary antibody for 2 hours at room temperature, washed and incubated for 1 hour with a corresponding […] at room temperature. […]
CRP mRNA expression was measured by quantitative real-time RT-PCR. […]

Substance: human leptin: human recombinant leptin
- effect on CRP gene expression, short treatment (6-8 hours): did not influence CRP gene expression
- effect on secreted CRP in the culture medium (human hepatocytes, physiological leptin concentrations, 24 hours): dose-dependent positive effect
- effect on human CRP mRNA expression (real-time PCR): dosage-dependent effect
